Measured values reported in PubChem BioAssay AID540258 (Broad Institute, 2011).
Active and inactive are the calls of the source.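 Rule for the calls: active = fitted curve reaching 40% activation at or below the top valid dose tested; inconclusive = flat curve at 30 to 70% activation, or poor fit; inactive = the rest.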

Each compound was assayed on SK-MEL-5 TRPM1 promoter luciferase reporter, 24 h (assay: MITF activators via TRPM1 promoter reporter, dose response, SK-MEL-5 cells, luciferase, cherry-pick samples (AID 540258);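 note: potency for activators that raise TRPM1 promoter luciferase signal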).

| Structure (SMILES) | AC40 |
| --- | --- |
| COc1cccc2[nH]c(=O)c(-c3ccccc3)cc12 | 1720 nM |
| COc1cccc2cc(CC(=O)c3ccc(C)cc3C)c(=O)oc12 | 11900 nM |
| CC(C)(C)n1ncc2c(=O)n(CC(=O)c3ccccc3)cnc21 | 2870 nM |
| Cc1nc(C(C)NC(=O)CCc2nnc(CCCc3ccccc3)o2)c(C)s1 (stereo unspecified) | 3830 nM |
| COc1ccccc1N1CCN(/N=C/c2cccc(Cl)c2)CC1 | 1450 nM |
| Cc1ccc(C(=O)NCCc2ccc(F)cc2)s1 | 245 nM |
| Cn1c(NC(=O)CCC2CCCCC2)cc(=O)n(C)c1=O | 1490 nM |
| O=C(Cn1c(/C=C/c2ccccc2)nc2ccccc21)Nc1ccc(F)cc1 | 6450 nM |
| Cc1cccc(-c2nnc3sc(-c4ccccc4)nn23)c1 | 12200 nM |
| Cc1snc2sc(C(=O)c3ccc(Br)cc3)c(N)c12 | 1480 nM |
| CC(C)(C)c1ccc(C(=O)NCc2ccccc2)cc1 | 8050 nM |
| O=C(O)c1ccc(/C=C/c2ccc3cccc(O)c3n2)cc1 | 876 nM |
| CC(C)CNC(=O)C1CCN(Cc2ccc(OCc3ccccc3)cc2)CC1 | 20600 nM |
| Cc1nc(-c2noc(-c3ccccc3Cl)n2)c(C(F)(F)F)o1 | 11900 nM |
| CC(C)(C)c1csc(N/N=C/c2ccc(O)cc2)n1 | 17800 nM |
| COc1ccc(OC)c(/C=N/N(C)c2ccccc2)c1 | 1440 nM |
| Cc1cccc(-c2nc(C#N)c(NC3CCCCC3)o2)c1 | 1290 nM |
| c1ccc(COc2ccc(-c3csnn3)cc2)cc1 | 889 nM |
| Cc1ccc(C2=NN(S(C)(=O)=O)C(c3cccs3)C2)cc1 (stereo unspecified) | 2090 nM |
| Cc1cccc2nc(COc3ccc4ccccc4c3Br)cn12 | 1270 nM |
| CN(/N=C/c1ccc2c(c1)OCO2)c1ccccc1 | 1340 nM |
| CC(=O)NCCC1CCCCN1C(=O)c1cc(COc2cc(C)ccc2C)on1 (stereo unspecified) | 3200 nM |

| Structure (SMILES) | AC40 |
| --- | --- |
| CCC(C)c1ccc(NC(=O)Nc2cccnc2)cc1 (stereo unspecified) | 2210 nM |
| COc1ccc(Oc2ncnc3sccc23)cc1 | 6060 nM |
| O=C(c1noc2c1CCCC2)N1CCc2ccccc2C1 | 5970 nM |
| Clc1ccc(C#Cc2cccnc2)cc1 | 5780 nM |
| O=C(Cc1cccs1)NCc1ccc(Cl)cc1Cl | 5590 nM |
| Cc1ccc(NC(=O)N2CCc3ccccc3C2)cc1C | 4470 nM |
| Cc1ccc(/C=N/Nc2ccc(Cl)nn2)cc1 | 1930 nM |
| CCc1c(C(=O)Nc2ccc(C)c(C)c2)[nH]c(C)c1C(C)=O | 5170 nM |
| Cc1cccc(OCc2nc(-c3nonc3N)no2)c1C | 3810 nM |
| Nc1nonc1-n1nnc(C(=O)N/N=C/c2ccc(OCc3ccccc3F)cc2)c1CN1CCCCC1 | 17100 nM |
| COC(=O)c1ccc(Nc2ncnc3sccc23)cc1 | 7470 nM |
| COc1ccc(N2C(=O)c3ccccc3NC23CCCCC3)cc1 | 1620 nM |
| Nc1ccc2oc(=O)c3ccccc3c2c1 | 3190 nM |
| CC(=O)c1ccc2oc3ccccc3c(=O)c2c1 | 10100 nM |
| COc1ccccc1OCc1cc(-c2ccccc2)no1 | 2280 nM |
| O=C(CCCc1ccccc1)c1ccccc1 | 326 nM |
| CCc1ccc(N2Cc3ccccc3C2)cc1 | 2250 nM |
| Clc1ccc(-c2nc(C3CCCCC3)no2)cc1 | 1230 nM |
| Cc1ccc(NC(=O)c2ccccc2Cl)c(Cl)c1 | 4200 nM |
| CC(=O)c1ccc(Nc2ccc(-c3ccccc3C)nn2)cc1 | 4200 nM |
| CC(=O)c1cnc2c(-c3cccc(Br)c3)cnn2c1C | 13200 nM |
| COc1cc(OC)c2c(-c3cccc(/C=C/c4ccc(F)cc4)c3)cc(=O)oc2c1 | 6950 nM |

| Structure (SMILES) | AC40 |
| --- | --- |
| CC1CCN(c2ccc3c(c2)S(=O)(=O)c2ccccc2C3=O)CC1 | 442 nM |
| COc1ccc(C(=O)Nc2ccc3c4c(cccc24)CC3)cc1 | 13300 nM |
| CCN(CC)C(=O)c1cc(-c2ccc(Br)cc2)on1 | 1630 nM |
| N#C/C(C(=O)N1CCCCC1)=C1\Nc2ccccc2S1 | 5020 nM |
| Cc1cc(C(=O)CN2C(=O)NC3(CCCCC3C)C2=O)c(C)n1Cc1cccs1 (stereo unspecified) | 8170 nM |
| COC(=O)C(Cc1ccc(O)cc1)N1Cc2ccccc2C1=O (stereo unspecified) | 5900 nM |
| CCn1c(C(=O)OC)cc2c1ccn2-c1ccc(F)cc1 | 2940 nM |
| CC(=O)c1sc(NC(=O)c2ccccc2F)nc1-c1ccccc1 | 3020 nM |
| CCCCc1ccc(Nc2ncnc3nc[nH]c23)cc1 | 3370 nM |
| CCc1ccc(OC(=O)Nc2ccccc2)cc1 | 469 nM |
| COc1ccccc1/C=C/C=N/n1c(-c2ccccn2)n[nH]c1=S | 13500 nM |
| O=C1c2ccccc2/C(=C\C#Cc2ccccn2)N1c1ccccc1 | 3930 nM |
| Nc1c(C(=O)N2CCCC2)sc2nc(-c3ccccc3)ccc12 | 6190 nM |
| O=C(NC1=NCCS1)c1ccc(Cl)s1 | 2640 nM |
| CCCCCc1ccc(-c2ccc(OC)cc2)nc1 | 1380 nM |
| COc1ccc(C(=O)c2c[nH]c3ccccc23)cc1 | 2640 nM |
| CS(=O)(=O)N1CCc2cc(C(=O)Nc3ccccc3Br)ccc21 | 4960 nM |
| COc1ccc(-c2cc3nc4ccccc4n3c(N)c2C#N)cc1 | 1830 nM |
| c1ccc(C2=NN(c3ccccc3)CC2)cc1 | 1690 nM |
| COc1ccc(Oc2nnc(C)c3ccccc23)cc1 | 2600 nM |
| COCc1nn2c(N)c(-c3ccccc3)cnc2c1-c1ccccc1 | 2620 nM |
| CN1CCN(/N=C/c2ccc(Br)cc2)CC1 | 6000 nM |

| Structure (SMILES) | AC40 |
| --- | --- |
| Cc1cccc(-n2ncc3c(N4CC(C)CC(C)C4)ncnc32)c1 (stereo unspecified) | 749 nM |
| O=C(N=C1N=C2C=CC=CN2Cc2ccccc21)c1ccc(S(=O)(=O)N2CCCC2)cc1 | 30100 nM |
| Cc1ccn2c(C(=O)c3ccc(Cl)cc3)cnc2c1 | 803 nM |
| O=Cc1ccc(OCc2ccc3ccccc3c2)cc1 | 1400 nM |
| O=C(N/N=C/c1ccc(Cl)cc1Cl)c1cccc(F)c1 | 1950 nM |
| Cc1ccc(NC(=O)C(=O)NCc2ccccn2)cc1 | 16400 nM |
| COC(=O)c1ccc(N2CCN(c3ccccc3)CC2)nc1 | 3850 nM |
| Brc1ccc(OCc2cn3ccccc3n2)cc1 | 592 nM |
| Cc1nn(-c2ccc(N3CCCCC3)nn2)c(C)c1CCC(=O)Nc1cccc(F)c1 | 3230 nM |
| O=C(NCCC1=CCCCC1)NC12CC3CC(CC(C3)C1)C2 | 703 nM |
| Cc1ccc(C(=O)Nc2cccc(O)c2)cc1S(=O)(=O)N1CCCCCC1 | 8120 nM |
| Nc1nc(-c2cc(-c3ccccc3)no2)cs1 | 331 nM |
| Clc1ccc(SCc2cn3ccccc3n2)cc1 | 2690 nM |
| CCc1cccc2c(C(=O)CN3C(=O)NC4(CCCCCC4)C3=O)c[nH]c12 | > 35000 nM (inactive) |
| CCCCC(=O)Nc1sc2c(c1C#N)CC(C)(C)OC2 | 5290 nM |
| c1ccc(-c2nc(-c3nccc4ccccc34)oc2-c2ccccc2)cc1 | 3610 nM |
| CSc1nc(N)n2nc(-c3ccc(Cl)cc3)cc2n1 | 727 nM |
| O=C(Nc1ccc(Cl)c(Cl)c1)Nc1ccccc1O | 982 nM |
| O=C(N/N=C\c1cccc(Cl)c1)c1n[nH]c2c1CCCC2 | 504 nM |
| Cc1ccc(NC(=O)Nc2ccc3c(c2)N(C)C(=O)CS3)nc1 | 6650 nM |
| O=C(Cc1ccc(O)cc1)NC1CCCCCC1 | 10600 nM |
| CCc1ccc(-c2cn3nc(-c4ccccc4)cnc3n2)cc1 | > 35000 nM (inactive) |

| Structure (SMILES) | AC40 |
| --- | --- |
| COc1ccc(C(=O)/C=C/Nc2cccc(C)n2)cc1OC | 977 nM |
| CCCC(=O)N/C(N)=N/c1nc2ccccc2o1 | 558 nM |
| c1ccc(-c2cnnc(N3CCCCC3)n2)cc1 | 992 nM |
| C#CCSc1nnc(-c2ccc(O)cc2)o1 | 9520 nM |
| Clc1ccc(COn2nnc3ccccc32)c(Cl)c1 | 941 nM |
| COC(=O)Cn1c(C)nc2c(sc3nc(C)cc(C)c32)c1=O | 2340 nM |
| N#Cc1ccc(C(=O)NC2CCCCCCC2)cc1 | 3620 nM |
| Cc1nn2cc(-c3ccc(Cl)cc3)cnc2c1Cl | 8040 nM |
| Cn1c(-c2ncc(F)cc2F)cc2onc(-c3c(F)cccc3Cl)c2c1=O | > 35000 nM (inactive) |
| COc1ccc(/C(N)=N/OC(=O)c2cccs2)cc1OC | 6410 nM |
| CCCC(=O)N1c2ccc(-c3csc(N)n3)cc2CC1C (stereo unspecified) | 1650 nM |
| Cc1nc2c3cnn(-c4ccc(C)c(C)c4)c3ncn2n1 | 921 nM |
| CCN=c1scc(-c2ccc(F)cc2)n1/N=C/c1ccccn1 | 798 nM |
| CC(=O)c1sc(NC(=O)c2ccc3c(c2)OCO3)nc1C | 1390 nM |
| COc1ccc(-c2nnc(-c3ccc4ccccc4c3)o2)cc1 | 4300 nM |
| O=S(=O)(c1cccs1)N1CCCc2cccc(O)c21 | 7110 nM |
| O=C(Nc1ccc(OC(F)F)c(Cl)c1)c1ccccn1 | 461 nM |
| Clc1ccc(OCc2noc(-c3ccsc3)n2)c(Cl)c1 | 1450 nM |
| CC(=O)c1sc(N/N=C/c2cccc(O)c2)nc1C | 2670 nM |
| Cc1cc2cc(OCc3ccccc3)ccc2n1C | 737 nM |
| CSc1cccc(NC(=O)c2cnn3ccccc23)c1 | 1040 nM |
| O=C(Nc1cccnc1)c1cc(-c2ccc(Cl)cc2)on1 | 15300 nM |

| Structure (SMILES) | AC40 |
| --- | --- |
| Cc1cccnc1NC(=O)Nc1cccc(Cl)c1 | 2560 nM |
| COc1ccc(/C=N/Nc2ccccn2)cc1O | 3010 nM |
| Cc1nn2c(-c3ccccc3)ccnc2c1-c1ccccc1 | 4340 nM |
| CC(NS(=O)(=O)c1cccc(Cl)c1)C(=O)Nc1ccc(-c2nc3ccccc3s2)cc1 (stereo unspecified) | 6960 nM |
| CCCC(=O)Nc1ccc(C#Cc2ccccc2)cc1 | 1630 nM |
| Cc1noc(N)c1C(=O)Nc1ccc(C(C)(C)C)cc1 | 1660 nM |
| Cc1cccc(C(=O)Oc2ccc(/C=N/O)cc2)c1 | 2740 nM |
| Cc1ccc(Nc2ncc3c(n2)CC(C)(C)CC3=O)cc1 | 650 nM |
| C/C(=N\OCc1ccc(C#N)cc1)c1ccc(S(=O)(=O)N(C)C)cc1 | > 35000 nM (inactive) |
| CCc1ccc(O)c(-c2cc(C(=O)Nc3cccnc3)[nH]n2)c1 | 2440 nM |
| O=C1CCCc2nc3c(cc21)C(O)Oc1c-3ccc2ccccc12 (stereo unspecified) | 1520 nM |
| CCCSc1ccc(C(=O)Nc2ccc(F)cc2F)cn1 | 27200 nM |
| COc1ccc(/C=C2\SC(=O)N(CCNC(=O)C3CC4C=CC3C4)C2=O)cc1 (stereo unspecified) | 1390 nM |
| CC(=O)Nc1ccc2c(c1)ncn2-c1ccccc1 | 2760 nM |
| COc1ccc(/C=N/Nc2snc(SC)c2C#N)cc1OC | 4290 nM |
| CN(C)c1ccnc2sc3c(SCc4ccc(Cl)cc4)ncnc3c12 | 4300 nM |
| Cc1ccc(-n2nc3ccc(NC(=O)C(C)C)cc3n2)cc1 | 555 nM |
| O=C(Oc1ccc2ccccc2c1Cl)N1CCCCCC1 | 557 nM |
| Cc1nc(-c2ccc(NC(=O)c3ccccc3Br)cc2)cs1 | 1570 nM |
| COc1ccc2cc(CCNC(=O)c3cccs3)c(=O)[nH]c2c1 | 1950 nM |
| N#Cc1ccsc1NC(=O)CCc1ccccc1 | 9770 nM |
